Assay results reported in ChEMBL document CHEMBL4715821, “Discovery of 4-ethoxy-7H-pyrrolo[2,3-d]pyrimidin-2-amines as potent, selective and orally bioavailable LRRK2 inhibitors” (Bioorg Med Chem Lett, 2018).

How the values were obtained:
[1] = biological target: Homeodomain-interacting protein kinase 3 (Homo sapiens) (UniProt Q9H422); assay: Inhibition of wild-type human partial length HIPK3 (M153 to N562 residues) expressed in mammalian expression system assessed as residual activity at 1 uM by Kinomescan method relative to control
[2] = biological target: Calcium/calmodulin-dependent protein kinase kinase 1 (Homo sapiens) (UniProt Q8N5S9); assay: Inhibition of wild-type human partial length CAMKK1 (R65 to E414 residues) expressed in bacterial expression system assessed as residual activity at 1 uM by Kinomescan method relative to control
Calcium/calmodulin-dependent protein kinase kinase 1 (Homo sapiens), sequence (Q8N5S9 whole entry, looked up, the tested form may be a part): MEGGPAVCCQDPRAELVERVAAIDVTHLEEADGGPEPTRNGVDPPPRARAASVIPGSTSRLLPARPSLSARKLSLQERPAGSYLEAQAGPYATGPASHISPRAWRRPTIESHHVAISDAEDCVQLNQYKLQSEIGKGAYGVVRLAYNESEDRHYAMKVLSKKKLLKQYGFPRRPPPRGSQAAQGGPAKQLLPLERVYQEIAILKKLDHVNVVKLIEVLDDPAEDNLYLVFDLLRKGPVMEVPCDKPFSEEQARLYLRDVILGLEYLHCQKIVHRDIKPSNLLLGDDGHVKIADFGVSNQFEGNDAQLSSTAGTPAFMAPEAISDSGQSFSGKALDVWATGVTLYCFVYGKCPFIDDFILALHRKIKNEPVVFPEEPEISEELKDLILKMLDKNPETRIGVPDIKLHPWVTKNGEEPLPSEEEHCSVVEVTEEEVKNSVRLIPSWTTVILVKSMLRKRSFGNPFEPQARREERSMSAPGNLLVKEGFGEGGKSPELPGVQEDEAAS

[3] = biological target: Serine/threonine-protein kinase 32B (Homo sapiens) (UniProt Q9NY57); assay: Inhibition of wild-type human full length YANK2 (M1 to S414 residues) expressed in bacterial expression system assessed as residual activity at 1 uM by Kinomescan method relative to control
[4] = biological target: Serine/threonine-protein kinase 32C (Homo sapiens) (UniProt Q86UX6); assay: Inhibition of wild-type human partial length YANK3 (M68 to G486 residues) expressed in bacterial expression system assessed as residual activity at 1 uM by Kinomescan method relative to control
Serine/threonine-protein kinase 32C (Homo sapiens), sequence (Q86UX6 whole entry, the tested form may be a part): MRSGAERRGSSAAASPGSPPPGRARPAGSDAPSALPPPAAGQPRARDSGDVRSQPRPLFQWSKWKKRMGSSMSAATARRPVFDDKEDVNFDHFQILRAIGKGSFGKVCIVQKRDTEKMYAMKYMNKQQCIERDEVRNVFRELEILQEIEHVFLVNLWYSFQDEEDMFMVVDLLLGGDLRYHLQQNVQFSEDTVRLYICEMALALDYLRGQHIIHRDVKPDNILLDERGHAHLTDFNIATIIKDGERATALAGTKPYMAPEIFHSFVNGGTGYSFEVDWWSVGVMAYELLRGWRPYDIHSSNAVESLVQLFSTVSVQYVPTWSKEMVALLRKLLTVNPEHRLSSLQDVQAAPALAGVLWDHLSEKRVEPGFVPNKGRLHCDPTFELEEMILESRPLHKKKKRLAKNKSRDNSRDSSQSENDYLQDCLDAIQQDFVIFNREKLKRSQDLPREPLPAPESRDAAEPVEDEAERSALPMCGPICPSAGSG

[5] = biological target: Serine/threonine-protein kinase SIK2 (Homo sapiens) (UniProt Q9H0K1); assay: Inhibition of wild-type human full length SIK2 (M1 to N926 residues) expressed in bacterial expression system assessed as residual activity at 1 uM by Kinomescan method relative to control
[6] = biological target: CDC7/DBF4 (Cell division cycle 7-related protein kinase/Activator of S phase kinase) (Homo sapiens) (UniProt Q9UBU7+O00311); assay: Inhibition of CDC7/DBF4 (unknown origin) assessed as residual activity at 1 uM by Kinomescan method relative to control; type: protein-complex assay
[7] = biological target: Protein kinase C epsilon type (Homo sapiens) (UniProt Q02156); assay: Inhibition of PKCepsilon (unknown origin) assessed as residual activity at 1 uM by Kinomescan method relative to control
[8] = biological target: Epithelial discoidin domain-containing receptor 1 (Homo sapiens) (UniProt Q08345); assay: Inhibition of wild-type human partial length DDR1 (R565 to V876 residues) expressed in bacterial expression system assessed as residual activity at 1 uM by Kinomescan method relative to control
[9] = biological target: Testis-specific serine/threonine-protein kinase 2 (Homo sapiens) (UniProt Q96PF2); assay: Inhibition of TSSK2 (unknown origin) assessed as residual activity at 1 uM by Kinomescan method relative to control
[10] = biological target: Calcium/calmodulin-dependent protein kinase kinase 2 (Homo sapiens) (UniProt Q96RR4); assay: Inhibition of wild-type human partial length CAMKK2 (D65 to V471 residues) expressed in bacterial expression system assessed as residual activity at 1 uM by Kinomescan method relative to control
[11] = In vivo inhibition of LRRK2 in Han-Wistar rat assessed as reduction in Ser935 phosphorylation in brain at 30 mg/kg, po by Western blot analysis; type: functional; design: scale not given: the % may be the effect or the level left
[12] = biological target: Mitogen-activated protein kinase kinase kinase 2 (Homo sapiens) (UniProt Q9Y2U5); assay: Inhibition of MEKK2 (unknown origin) assessed as residual activity at 1 uM by Kinomescan method relative to control
[13] = In vivo inhibition of LRRK2 in Han-Wistar rat assessed as reduction in Ser935 phosphorylation in spleen at 10 to 100 mg/kg, po by Western blot analysis; type: functional; design: scale not given: the % may be the effect or the level left; details: dose 10-100 mg/kg
[14] = biological target: Death-associated protein kinase 3 (Homo sapiens) (UniProt O43293); assay: Inhibition of wild-type human partial length DAPK3 (M1 to A277 residues) expressed in bacterial expression system assessed as residual activity at 1 uM by Kinomescan method relative to control
[15] = biological target: Serine/threonine-protein kinase DCLK1 (Homo sapiens) (UniProt O15075); assay: Inhibition of wild-type human partial length DCAMKL1 (L270 to A662 residues) expressed in mammalian expression system assessed as residual activity at 1 uM by Kinomescan method relative to control
[16] = biological target: Ephrin type-B receptor 2 (Homo sapiens) (UniProt P29323); assay: Inhibition of wild-type human partial length EPHB2 (I597 to L902 residues) expressed in bacterial expression system assessed as residual activity at 1 uM by Kinomescan method relative to control
Ephrin type-B receptor 2 (Homo sapiens), sequence (P29323 whole entry, the tested form may be a part): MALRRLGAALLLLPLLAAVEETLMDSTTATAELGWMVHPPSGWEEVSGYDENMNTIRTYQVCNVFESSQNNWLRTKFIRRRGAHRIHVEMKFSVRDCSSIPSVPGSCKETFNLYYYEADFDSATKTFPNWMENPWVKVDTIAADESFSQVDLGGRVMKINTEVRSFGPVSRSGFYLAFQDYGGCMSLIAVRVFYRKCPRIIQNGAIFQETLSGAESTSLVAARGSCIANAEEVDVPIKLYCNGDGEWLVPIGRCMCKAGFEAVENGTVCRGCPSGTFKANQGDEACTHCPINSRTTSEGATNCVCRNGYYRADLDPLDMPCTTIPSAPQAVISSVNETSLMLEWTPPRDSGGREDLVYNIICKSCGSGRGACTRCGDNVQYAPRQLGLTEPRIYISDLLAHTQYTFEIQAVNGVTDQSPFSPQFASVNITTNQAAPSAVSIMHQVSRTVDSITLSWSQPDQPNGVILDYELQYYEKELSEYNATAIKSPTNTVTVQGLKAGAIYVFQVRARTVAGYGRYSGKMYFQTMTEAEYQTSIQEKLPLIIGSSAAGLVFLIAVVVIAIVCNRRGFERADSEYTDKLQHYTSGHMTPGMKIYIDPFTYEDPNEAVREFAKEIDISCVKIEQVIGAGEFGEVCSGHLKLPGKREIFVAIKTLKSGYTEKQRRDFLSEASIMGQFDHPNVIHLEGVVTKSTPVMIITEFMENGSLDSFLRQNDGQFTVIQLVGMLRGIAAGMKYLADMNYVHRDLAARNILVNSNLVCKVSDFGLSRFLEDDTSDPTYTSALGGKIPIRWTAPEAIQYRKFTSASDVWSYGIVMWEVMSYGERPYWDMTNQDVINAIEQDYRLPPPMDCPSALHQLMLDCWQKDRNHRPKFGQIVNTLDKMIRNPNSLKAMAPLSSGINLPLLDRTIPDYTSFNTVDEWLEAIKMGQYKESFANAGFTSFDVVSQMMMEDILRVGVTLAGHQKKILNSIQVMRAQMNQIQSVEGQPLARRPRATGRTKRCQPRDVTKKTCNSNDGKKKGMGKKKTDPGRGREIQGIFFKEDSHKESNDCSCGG

[17] = biological target: Calcium/calmodulin-dependent protein kinase type 1G (Homo sapiens) (UniProt Q96NX5); assay: Inhibition of wild-type human partial length CAMK1G (M1 to A342 residues) expressed in bacterial expression system assessed as residual activity at 1 uM by Kinomescan method relative to control
[18] = biological target: Serine/threonine-protein kinase PAK 5 (Homo sapiens) (UniProt Q9P286); assay: Inhibition of PAK5 (unknown origin) assessed as residual activity at 1 uM by Kinomescan method relative to control
[19] = biological target: Ribosomal protein S6 kinase beta-2 (Homo sapiens) (UniProt Q9UBS0); assay: Inhibition of RPS6KB2 (unknown origin) assessed as residual activity at 1 uM by Kinomescan method relative to control
[20] = biological target: Serine/threonine-protein kinase Nek4 (Homo sapiens) (UniProt P51957); assay: Inhibition of wild-type human full length NEK4 (M1 to F841 residues) expressed in mammalian expression system assessed as residual activity at 1 uM by Kinomescan method relative to control
Serine/threonine-protein kinase Nek4 (Homo sapiens), sequence (P51957 whole entry, looked up, the tested form may be a part): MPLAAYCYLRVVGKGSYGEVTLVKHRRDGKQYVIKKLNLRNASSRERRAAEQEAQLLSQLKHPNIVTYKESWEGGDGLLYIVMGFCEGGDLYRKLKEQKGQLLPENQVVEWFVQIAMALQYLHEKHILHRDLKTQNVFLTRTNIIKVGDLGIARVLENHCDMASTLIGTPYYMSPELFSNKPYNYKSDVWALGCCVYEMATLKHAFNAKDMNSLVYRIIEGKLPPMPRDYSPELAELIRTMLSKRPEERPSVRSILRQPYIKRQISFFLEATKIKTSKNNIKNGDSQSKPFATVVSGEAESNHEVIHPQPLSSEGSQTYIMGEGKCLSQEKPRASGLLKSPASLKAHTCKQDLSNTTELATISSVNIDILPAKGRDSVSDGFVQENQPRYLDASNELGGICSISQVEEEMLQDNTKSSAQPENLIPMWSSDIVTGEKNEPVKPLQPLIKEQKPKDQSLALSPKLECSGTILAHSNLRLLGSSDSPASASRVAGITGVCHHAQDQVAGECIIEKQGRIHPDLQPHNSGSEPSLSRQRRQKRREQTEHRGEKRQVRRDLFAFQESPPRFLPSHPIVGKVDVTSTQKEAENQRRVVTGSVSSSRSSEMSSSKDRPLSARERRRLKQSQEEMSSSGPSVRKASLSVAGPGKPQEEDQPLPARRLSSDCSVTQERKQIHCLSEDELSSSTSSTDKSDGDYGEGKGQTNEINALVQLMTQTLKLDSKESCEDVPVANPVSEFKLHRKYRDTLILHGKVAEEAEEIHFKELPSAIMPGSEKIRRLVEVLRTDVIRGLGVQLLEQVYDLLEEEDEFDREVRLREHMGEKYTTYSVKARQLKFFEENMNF

[21] = biological target: Tyrosine-protein kinase JAK2 (Homo sapiens) (UniProt O60674); assay: Inhibition of wild-type human partial length JAK2 JH1 catalytic domain (A829 to G1132 residues) expressed in mammalian expression system assessed as residual activity at 1 uM by Kinomescan method relative to control
[22] = biological target: Maternal embryonic leucine zipper kinase (Homo sapiens) (UniProt Q14680); assay: Inhibition of wild-type human full length MELK (M1 to V651 residues) expressed in bacterial expression system assessed as residual activity at 1 uM by Kinomescan method relative to control
[23] = biological target: Ephrin type-B receptor 1 (Homo sapiens) (UniProt P54762); assay: Inhibition of wild-type human partial length EPHB1 (P589 to T911 residues) expressed in bacterial expression system assessed as residual activity at 1 uM by Kinomescan method relative to control
[24] = biological target: Serine/threonine-protein kinase MRCK beta (Homo sapiens) (UniProt Q9Y5S2); assay: Inhibition of wild-type human partial length MRCKB (L56 to S417 residues) expressed in bacterial expression system assessed as residual activity at 1 uM by Kinomescan method relative to control
Serine/threonine-protein kinase MRCK beta (Homo sapiens), sequence (Q9Y5S2 whole entry, the tested form may be a part): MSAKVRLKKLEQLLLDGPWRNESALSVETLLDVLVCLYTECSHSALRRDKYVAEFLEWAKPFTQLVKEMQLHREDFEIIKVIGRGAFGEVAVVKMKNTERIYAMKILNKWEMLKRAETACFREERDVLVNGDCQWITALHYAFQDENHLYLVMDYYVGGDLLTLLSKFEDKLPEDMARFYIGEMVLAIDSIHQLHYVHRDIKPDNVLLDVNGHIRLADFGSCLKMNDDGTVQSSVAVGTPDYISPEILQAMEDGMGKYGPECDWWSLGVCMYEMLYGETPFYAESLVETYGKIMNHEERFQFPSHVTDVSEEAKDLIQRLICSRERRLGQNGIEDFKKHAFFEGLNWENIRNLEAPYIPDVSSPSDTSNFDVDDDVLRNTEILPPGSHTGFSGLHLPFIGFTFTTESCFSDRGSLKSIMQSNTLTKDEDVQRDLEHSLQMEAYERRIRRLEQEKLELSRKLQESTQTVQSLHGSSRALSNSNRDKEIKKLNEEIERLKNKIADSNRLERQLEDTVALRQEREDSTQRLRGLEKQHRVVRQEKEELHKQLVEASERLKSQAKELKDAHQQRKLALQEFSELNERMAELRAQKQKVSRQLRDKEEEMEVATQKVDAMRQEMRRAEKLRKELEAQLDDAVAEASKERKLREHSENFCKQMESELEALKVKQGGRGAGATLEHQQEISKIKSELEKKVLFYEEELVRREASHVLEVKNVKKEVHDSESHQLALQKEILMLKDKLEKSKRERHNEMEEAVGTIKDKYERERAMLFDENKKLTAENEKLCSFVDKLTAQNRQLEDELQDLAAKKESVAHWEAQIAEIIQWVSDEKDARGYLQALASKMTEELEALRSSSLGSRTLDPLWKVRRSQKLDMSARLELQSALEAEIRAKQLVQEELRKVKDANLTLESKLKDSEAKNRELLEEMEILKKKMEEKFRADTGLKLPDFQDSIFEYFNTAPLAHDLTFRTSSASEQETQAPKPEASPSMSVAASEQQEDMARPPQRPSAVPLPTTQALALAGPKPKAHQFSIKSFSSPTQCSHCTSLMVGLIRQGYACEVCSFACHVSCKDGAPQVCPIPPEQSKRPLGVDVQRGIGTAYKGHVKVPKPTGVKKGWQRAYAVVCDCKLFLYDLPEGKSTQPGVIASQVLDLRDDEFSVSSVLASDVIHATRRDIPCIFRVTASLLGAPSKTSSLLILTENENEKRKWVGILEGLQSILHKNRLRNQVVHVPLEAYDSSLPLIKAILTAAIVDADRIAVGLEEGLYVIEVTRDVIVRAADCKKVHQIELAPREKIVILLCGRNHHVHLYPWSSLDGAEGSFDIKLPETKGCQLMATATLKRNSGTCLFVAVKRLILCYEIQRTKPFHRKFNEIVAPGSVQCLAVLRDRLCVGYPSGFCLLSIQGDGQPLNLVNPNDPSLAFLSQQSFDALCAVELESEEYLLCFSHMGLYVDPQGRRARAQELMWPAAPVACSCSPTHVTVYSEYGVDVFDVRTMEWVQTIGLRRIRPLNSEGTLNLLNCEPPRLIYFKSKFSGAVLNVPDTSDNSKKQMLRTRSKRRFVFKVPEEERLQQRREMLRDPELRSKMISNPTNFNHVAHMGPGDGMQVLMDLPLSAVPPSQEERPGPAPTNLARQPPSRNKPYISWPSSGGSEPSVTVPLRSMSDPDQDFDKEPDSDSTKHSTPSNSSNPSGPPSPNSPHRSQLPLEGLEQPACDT

[25] = biological target: Rho-associated protein kinase 2 (Homo sapiens) (UniProt O75116); assay: Inhibition of wild-type human partial length ROCK2 (M1 to T431 residues) expressed in mammalian expression system assessed as residual activity at 1 uM by Kinomescan method relative to control
[26] = biological target: Tyrosine-protein kinase FRK (Homo sapiens) (UniProt P42685); assay: Inhibition of wild-type human partial length FRK (A215 to F503 residues) expressed in bacterial expression system assessed as residual activity at 1 uM by Kinomescan method relative to control
Tyrosine-protein kinase FRK (Homo sapiens), sequence (P42685 whole entry, the tested form may be a part): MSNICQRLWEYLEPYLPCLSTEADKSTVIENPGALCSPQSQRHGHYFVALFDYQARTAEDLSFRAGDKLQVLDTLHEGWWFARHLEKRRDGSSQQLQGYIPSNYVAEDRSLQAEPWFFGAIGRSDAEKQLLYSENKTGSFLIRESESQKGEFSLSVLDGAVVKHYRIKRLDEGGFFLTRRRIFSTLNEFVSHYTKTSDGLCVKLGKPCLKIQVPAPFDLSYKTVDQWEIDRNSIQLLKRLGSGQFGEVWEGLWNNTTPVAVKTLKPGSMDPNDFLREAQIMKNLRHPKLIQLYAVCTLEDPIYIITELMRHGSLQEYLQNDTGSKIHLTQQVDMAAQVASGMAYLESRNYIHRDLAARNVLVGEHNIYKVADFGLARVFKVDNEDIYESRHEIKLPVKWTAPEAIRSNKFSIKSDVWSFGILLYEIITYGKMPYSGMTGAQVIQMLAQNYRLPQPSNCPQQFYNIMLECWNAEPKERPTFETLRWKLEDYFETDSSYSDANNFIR

[27] = biological target: Wee1-like protein kinase (Homo sapiens) (UniProt P30291); assay: Inhibition of wild-type human partial length WEE1 (M291 to K575 residues) expressed in bacterial expression system assessed as residual activity at 1 uM by Kinomescan method relative to control

Compound `CCOc1nc(Nc2ccc(C(=O)N3CCOCC3)cc2OC)nc2[nH]ccc12` has an Activity [1] of 98%, an Activity [2] of 101% and an Activity [3] of 100%. For the same compound, the Activity [4] was 107%, the Activity [5] was 97% and the Activity [6] was 102%. For the same compound, the Activity [7] was 95%, the Activity [8] was 102% and the Activity [9] was 20.9%. The Activity [10] was 81.6%, the Activity [11] was 50% and the Activity [12] was 99.3%. The Activity [13] was 100%, the Activity [14] was 66.9% and the Activity [15] was 86.5%. For the same compound, the Activity [16] was 95.3%, the Activity [17] was 106% and the Activity [18] was 105%. For the same compound, the Activity [19] was 98.9%, the Activity [20] was 95% and the Activity [21] was 96.3%. For the same compound, the Activity [22] was 97.9%, the Activity [23] was 100% and the Activity [24] was 98%. The Activity [25] was 91.3%, the Activity [26] was 90.6% and the Activity [27] was 98.3%.
